# Reference: PMC11214487, “YZL-51N functions as a selective inhibitor of SIRT7 by NAD^+ competition to impede DNA damage repair” (iScience, 2024)
# pEC50, pIC50, pKd: −log10 of the molar value. “And” between values parts separate entries of the source, which are not always exact repeats. Equal entries are not always repeated. Where two headings read alike, the source gives them in different places.
# How the values were obtained:
# SIRT7 [1] = target: T1, SIRT7 (Homo sapiens, UniProt Q9NRC8); experiment: Surface plasmon resonance (SPR) binding assay
# T1 construct: His-tagged full length SIRT7 protein expression from BL21 bacterial cells; His; made in house; host or cells: E. coli BL21
# T1 sequence (Q9NRC8 1-400): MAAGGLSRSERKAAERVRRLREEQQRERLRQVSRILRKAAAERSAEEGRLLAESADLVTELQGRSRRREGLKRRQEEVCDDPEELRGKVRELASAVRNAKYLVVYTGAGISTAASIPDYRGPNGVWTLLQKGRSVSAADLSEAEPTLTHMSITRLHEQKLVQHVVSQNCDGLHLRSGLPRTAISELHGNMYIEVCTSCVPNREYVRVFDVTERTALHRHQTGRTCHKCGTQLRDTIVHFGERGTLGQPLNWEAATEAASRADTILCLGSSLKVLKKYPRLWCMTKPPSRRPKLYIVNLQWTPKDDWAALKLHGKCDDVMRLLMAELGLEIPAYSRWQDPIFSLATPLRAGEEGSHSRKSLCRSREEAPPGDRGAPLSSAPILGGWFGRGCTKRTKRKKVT
# Procedure: All SPR measurements were performed on Biacore T200 instrument (GE Healthcare) with running buffer (PBS+5% DMSO) at room temperature. The bacterially purified His-SIRT7 was covalently immobilized onto Series S Sensor Chip CM5 by a standard amino-coupling procedure in 10 mM sodium acetate (pH 5.5). Two-fold serial dilutions of YZL-51N or NAD^+ in 5% DMSO passed through the sensor chip at 30 μL/min for 120 s, followed by 240 s of dissociation flow. The KD value was calculated based on the concentration dependence of the observed steady-state response using Biacore T200 Evaluation software Version 1.0 (GE Healthcare).
# SIRT7 [2] = target: T1, SIRT7; experiment: Fluor de Lys (FDL) SIRT7 deacetylase assay; assay type: biochemical; conditions: 2 mM NAM treatment
# SIRT7 [3] = target: T1, SIRT7; experiment: Fluor de Lys (FDL) SIRT7 deacetylase assay; assay type: biochemical; conditions: for pIC50: 0.5 mM NAD+, read-out: FDL assay SIRT7 inhibition IC50; for inhibition at 50 µM: 50 μM compound, 37°C, 90 min; for Dose-dependent inhibition of SIRT7: FDL assay, Figure S5
# Excerpt: To assess SIRT7 deacetylase activity using Fluor de Lys (FDL) assays, the peptide […]∗QLAGGK was synthesized and characterized as a substrate using fluorophore 7-methoxycoumarin-4-acetic acid (∗, MCA) (Figures 1A, S1A, and S1B). In the presence of both SIRT7 and NAD^+, a luminescence response was detected in the linear range (y = 31.88x + 2396, R^2 = 0.9742) (Figure 1B). We screened our preserved library of 242 natural products to find potential SIRT7 inhibitors.
# For in vitro analysis of SIRT7 deacetylation, the reaction system contained 10 μg His-SIRT7, 0.5 mM NAD^+, 10 μM […](MCA)QLAGGK (synthesized by QYAOBIO; details in the supplementary files), 50 μM potential compound or 3 mM NAM, and assay buffer (10 mM Tris-HCl pH 8.0, 4 mM MgCl2, 0.2 mM DTT and 10% Glycerol). The deacetylation reactions were incubated at 37°C for 90 min. The fluorescence intensity was measured with a microplate reader (Synergy H4 Hybrid Reader, Biotek) at an excitation wavelength of 260 nm and detected at an emission spectrum of 300–600 nm. The IC50 values were calculated at 450 nm emission by GraphPad Prism 8.
# EZH2 = test system: EZH2; design: method as in PMID 23023262; conditions: EZH2 over EZH1 ref 52; cited from earlier work
# SIRT7 [4] = target: T1, SIRT7; experiment: Dot blot assay of SIRT7-mediated H3K18ac peptide deacetylation; assay type: biochemical; conditions: for Rescue of H3K18 acetylation: dot blot screening, 50 μM; for pEC50: read-out: Dot blot assay H3K18ac rescue EC50
# Excerpt: To avoid the bias of the fluorescence assay, we also performed dot blot assays for the effects of natural compounds on SIRT7-mediated deacetylation of H3K18ac peptides in vitro (Figures S2A and S2B). In this system, SIRT7 mediated a dose-dependent deacetylation of H3K18ac (Figure 1D). […] Based on comparisons of all the candidates, we selected YZL-51N as the best for further investigation (Figure 1F). […] Thus, P. americana derived YZL-51N was confirmed as an identified SIRT7 inhibitor using parallel peptide-based screening platforms.
# For dot blot assays, the reaction system containing 10 μg His-SIRT7, 0.5 mM NAD^+, 10 μM biotin-H3K18ac peptides and 50 μM potential compound was mixed and incubated at 37°C for 90 min. Samples were transferred to a polyvinylidene difluoride (PVDF) membrane, and then blocked with 5% skimmed milk. The blots were probed with H3K18ac primary antibody at RT for 2 h and then incubated with secondary antibody at RT for 1h. The bands were visualized using ECL substrates (Thermo Fisher, USA) on Tanon 5200SF Imaging System.
# Procedure for HCT116 cells: Cells were seeded into 96 well plates (4,000 cells/well). […] The cells were then washed and re-cultured in fresh medium for 48 h. […] Formazan were generated by the addition of 100 μL DMSO and shaking for 30 min. The absorbance of samples was measured at 570 nm using a microtiter plate reader (BioTek).
structure (smiles),measurement,setting,value
NC(=O)c1ccc[n+]([C@@H]2O[C@H](COP(=O)([O-])OP(=O)(O)OC[C@H]3O[C@@H](n4cnc5c(N)ncnc54)[C@H](O)[C@@H]3O)[C@@H](O)[C@H]2O)c1 [NAD^+],Weaker affinity to SIRT7 than YZL-51N,SIRT7 [1],200 fold
same,pKd,SIRT7 [1]; immobilized His-SIRT7,< 3.70
"NC(=O)c1cccnc1 [NAM, nicotinamide, reference compound]",inhibition at 2000 µM,SIRT7 [2],44.4%
same,pIC50,SIRT7 [3]; 0-30 mM NAM,2.64 and ~2.64
Cc1cc(C)c(CNC(=O)c2cc(-c3ccc(CN4CCOCC4)cc3)cc3c2cnn3C2CCCC2)c(=O)[nH]1 [EPZ005687],Selectivity against EZH1,EZH2,50 fold
O=C(O)/C(=C\C(=O)c1ccc(O)c(O)c1)c1ccc(O)c(O)c1 [compound 7],Rescue of H3K18 acetylation,SIRT7 [4],rescued H3K18 acetylation
same,pEC50,SIRT7 [4],4.49
same,inhibition at 50 µM,SIRT7 [3],52.7%
same,pIC50,SIRT7 [3]; 10 μM peptide,< 4.52
same,Dose-dependent inhibition of SIRT7,SIRT7 [3],did not show a dose-dependent inhibition
COc1ccc(C(C)=O)cc1OC [compound 1],inhibition at 50 µM,SIRT7 [3],47.5%
same,Dose-dependent inhibition of SIRT7,SIRT7 [3],did not show a dose-dependent inhibition
COC(=O)/C(=C\C(=O)c1ccc(OC)c(OC)c1)c1ccc(OC)c(OC)c1 [compound 6],Rescue of H3K18 acetylation,SIRT7 [4],rescued H3K18 acetylation
same,pEC50,SIRT7 [4],4.15
same,inhibition at 50 µM,SIRT7 [3],12.3%
"COc1cc([C@@H]2c3cc4c(cc3[C@@H](O[C@@H]3O[C@@H]5CO[C@@H](C)O[C@H]5[C@H](O)[C@H]3O)[C@H]3COC(=O)[C@H]23)OCO4)cc(OC)c1O [etoposide, reference compound]","Cell proliferation (%, Mean ± SD)",HCT116 cells; single agent 5 μM,92.7 ± 4.1%
same,"Cell proliferation (%, Mean ± SD)",HCT116 cells; single agent 10 μM,82.5 ± 6.0%
same,"Cell proliferation (%, Mean ± SD)",HCT116 cells; single agent 20 μM,73.5 ± 6.0%
same,"Cell proliferation (%, Mean ± SD)",HCT116 cells; single agent 40 μM,48.5 ± 2.4%
same,"Cell proliferation (%, Mean ± SD)",HCT116 cells; single agent 80 μM,27.0 ± 1.9%
